In patent US8722663B2, “Di-substituted pyridine derivatives as anticancers” (Otsuka Pharmaceutical Co., Ltd., priority 2010, dated 2014) one finds IC50 and melting point data, which are given here for 19 compounds.

For data set [1], the system named is human hepatic cancer cell line (HuH-7). As to the kind of experiment: Growth inhibition of HuH-7 cells, sulforhodamine B method. Type of data set: cell-based. Conditions: 5 days with test compound. The procedure:
(§1) Growth inhibition of a human breast cancer cell line (MDA-MB-468) was determined by the sulforhodamine B method based on the method of Skehan P. et al. (J Natl Cancer Inst. 1990 Jul. 4; 82(13): 1107-12). In the study, MDA-MB-468 cells were seeded on DMEM medium containing 10% fetal bovine serum in a 96-well microplate. After 24-h incubation at 37° C. in the presence of 5% carbon dioxide, the test compound was added and the cells were incubated for another 5 days. After incubation, a trichloroacetic acid solution was added to yield the final concentration of 10% and the cells were left to stand at 4° C. for 1 hour to fix. Then, the cells were washed with water to remove the medium and trichloroacetic acid and dried in the air. The dried cells were stored at 4° C. until they were stained with sulforhodamine B. To each well, 1% acetic acid solution containing 0.4% sulforhodamine B was added and left to stand for 20 to 30 minutes at room temperature. After discarding the supernatant, each well was washed with 1% acetic acid solution, and 10 mM Tris([…]) solution was added while stirring to elute the dye taken into the cells. Then, the optical density was determined at the measurement wavelength of 492 nm and the reference wavelength of 690 nm, and the difference was calculated. The cell growth activity in each well was defined as the value determined by subtracting the OD in the control well not containing cells (the difference in absorbance between 492 nm and 690 nm) from that in the test well.
(§2) The 50% inhibitory concentration (IC50 (nM)) of the test compound was determined by comparing the cell growth activity in the well containing the test compound with that of the control not containing the test compound.
The growth inhibition on a human hepatic cancer cell line (HuH-7) was also determined by the above method.
On the technique in general: The SRB assay estimates cell density from bound dye.

Data set [2] deals with human breast cancer cell line (MDA-MB-468). Briefly: Growth inhibition of MDA-MB-468 cells, sulforhodamine B method. Type of data set: cell-based. Conditions: 120 h, 5 days with test compound. The procedure:
as §1, §2

Where a name gives a salt, the structure may show the parent alone.

With `CCOc1ccc(OCCOc2ccc(CN3CCN(C(=O)/C=C/c4cc(C)c(Oc5ccc(OCc6ccc(C)cc6)cn5)c(Cl)c4)CC3)cc2)cc1` [Example 315, (E)-3-[3-Chloro-5-methyl-4-({5-[(4-methylbenzyl)oxy]pyridin-2-yl}oxy)phenyl]-1-(4-{4-[2-(4-ethoxyphenoxy)ethoxy]benzyl}piperazin-1-yl)prop-2-en-1-one], the IC50 in data set [1] (Homo sapiens, 120 h) is less than 10 nM.
In data set [1] (Homo sapiens, 120 h), `Cc1ccc(CN2CCN(C(=O)/C=C/c3cc(C)c(Oc4ccc(OCc5ccc(C(C)C)cc5)cn4)c(Cl)c3)CC2)cc1` [Example 358, (E)-3-{3-Chloro-5-methyl-4-[(5-{[4-(propan-2-yl)benzyl]oxy}pyridin-2-yl)oxy]phenyl}-1-[4-(4-methylbenzyl)piperazin-1-yl]prop-2-en-1-one] returned an IC50 of less than 10 nM.
As for `Cc1cc(/C=C/C(=O)N2CCN(Cc3ccc(CCOCc4ccc(Cl)cc4)cc3)CC2)cc(C)c1Oc1ccc(OCc2ccncc2)cn1` [Example 384, (E)-1-[4-(4-{2-[(4-chlorobenzyl)oxy]ethyl}benzyl)piperazin-1-yl]-3-(3,5-dimethyl-4-{[5-(pyridin-4-ylmethoxy)pyridin-2-yl]oxy}phenyl)prop-2-en-1-one], the IC50 in data set [1] (Homo sapiens, 120 h) is less than 10 nM.
Turning to `C=Cc1ccc(CN2CCN(C(=O)/C=C/c3cc(C)c(Oc4ccc(OCc5ccccc5Cl)cn4)c(Cl)c3)CC2)cc1` [Example 391, (E)-3-[3-chloro-4-({5-[(2-chlorobenzyl)oxy]pyridin-2-yl}oxy)-5-methylphenyl]-1-[4-(4-ethenylbenzyl)-piperazin-1-yl]prop-2-en-1-one], the IC50 in data set [1] (Homo sapiens, 120 h) is less than 10 nM.
As to `COc1ccc(OCCc2ccc(CN3CCN(C(=O)/C=C/c4cc(C)c(Oc5ccc(OCc6ccc(C#N)cc6)cn5)c(C)c4)CCO3)cc2)cc1` [Example 402, 4-{[(6-{4-[(E)-3-(2-{4-[2-(4-Methoxyphenoxy)ethyl]benzyl}-1,2,5-oxadiazepan-5-yl)-3-oxoprop-1-en-1-yl]-2,6-dimethylphenoxy}pyridin-3-yl)oxy]methyl}benzonitrile], the IC50 in data set [1] (Homo sapiens, 120 h) is less than 10 nM.
Still for that read-out and setting: the value for `Cc1ccc(OC/C=C/c2ccc(CN3CCN(C(=O)/C=C/c4cc(C)c(Oc5ccc(OCc6ccc(F)cc6)cn5)c(C)c4)CC3)cc2C)cc1` [Example 407, (2E)-3-[4-({5-[(4-fluorobenzyl)oxy]pyridin-2-yl}oxy)-3,5-dimethylphenyl]-1-(4-{3-methyl-4-[(1E)-3-(4-methylphenoxy)prop-1-en-1-yl]benzyl}piperazin-1-yl)prop-2-en-1-one] was less than 10 nM.
`COc1ccc(OCCc2ccc(CN3CCN(C(=O)/C=C/c4cc(C)c(Oc5ccc(OCc6ccc(C)c(F)c6)cn5)c(Cl)c4)CC3)cc2)cc1` [Example 428, (E)-3-[3-Chloro-4-({5-[3-fluoro-4-methylbenzyl)oxy]pyridin-2-yl}oxy)-5-methylphenyl]-1-(4-{4-[2-(4-methoxyphenoxy)ethyl]benzyl}piperazin-1-yl)prop-2-en-1-one hydrochloride]: in data set [1], the IC50 is less than 10 nM.
On to `Cc1cc(/C=C/C(=O)N2CCN(Cc3ccc(CCOc4ccc(C(C)C)cc4)cc3)CC2)cc(Cl)c1Oc1ccc(OCc2ccc(Cl)nc2)cn1.Cl` [Example 443, (E)-3-[3-Chloro-4-({5-[(6-chloropyridin-3-yl)methoxy]pyridin-2-yl}oxy)-5-methylphenyl]-1-[4-(4-{2-[4-(propan-2-yl)phenoxy]ethyl}benzyl)piperazin-1-yl]prop-2-en-1-one hydrochloride], for which the melting point lay within 214.8 to 215.3 °C. In data set [1] (Homo sapiens, 120 h), this compound returned an IC50 of less than 10 nM.
The like results for `Cc1cc(/C=C/C(=O)N2CCN(Cc3ccc(CCOc4ccc(C(C)C)cc4)cc3)CC2)cc(Cl)c1Oc1ccc(OCc2cccnc2)cn1.Cl` [Example 445, (E)-3-(3-Chloro-5-methyl-4-{[5-(pyridin-3-ylmethoxy)pyridin-2-yl]oxy}phenyl)-1-[4-(4-{2-[4-(propan-2-yl)phenoxy]ethyl}benzyl)piperazin-1-yl]prop-2-en-1-one hydrochloride] were, in that order, 166.4 to 167.7 °C and less than 10 nM.
As to `Cc1cc(/C=C/C(=O)N2CCN(Cc3ccc(CCOc4ccc(F)cc4)cc3)CC2)cc(Cl)c1Oc1ccc(OCc2ccccc2Cl)cn1.Cl` [Example 449, (E)-3-[3-Chloro-4-({5-[(2-chlorobenzyl)oxy]pyridin-2-yl}oxy)-5-methylphenyl]-1-(4-{4-[2-(4-fluorophenoxy)ethyl]benzyl}piperazin-1-yl)prop-2-en-1-one hydrochloride], the melting point was 211.9 to 214 °C. This compound also gave an IC50 in data set [1] (Homo sapiens, 120 h) of less than 10 nM.
The like results for `COc1cc(/C=C/C(=O)N2CCN(Cc3ccc(CCOc4ccc(C)cc4)cc3)CC2)ccc1Oc1ccc(OCc2ccccc2Cl)cn1.Cl` [Example 482, (E)-3-[4-({5-[(2-Chlorobenzyl)oxy]pyridin-2-yl}oxy)-3-methoxyphenyl]-1-(4-{4-[2-(4-methylphenoxy)ethyl]benzyl}piperazin-1-yl)prop-2-en-1-one hydrochloride] were, in that order, 203.4 to 205.7 °C and less than 10 nM.
In turn, `CC(C)c1ccc(OCCc2ccc(CN3CCN(C(=O)c4ccc5cc(Oc6ccc(OCc7cccc(F)c7F)cn6)ccc5c4)CC3)cc2)cc1` [Example 542, [6-({5-[(2,3-Difluorobenzyl)oxy]pyridin-2-yl}oxy)naphthalen-2-yl][4-(4-{2-[4-(propan-2-yl)phenoxy]ethyl}benzyl)piperazin-1-yl]methanone hydrochloride] came in with a 50% inhibitory concentration (IC50) in data set [1] (Homo sapiens, 120 h) of less than 10 nM.
Compound `Cc1ccc(OCCc2ccc(CN3CCN(C(=O)/C=C/c4cc(C)c(Oc5ccc(OCc6cncs6)cn5)c(C)c4)CC3)cc2)cc1.Cl` [Example 596, (E)-3-(3,5-Dimethyl-4-{[5-(1,3-thiazol-5-ylmethoxy)pyridin-2-yl]oxy}phenyl)-1-(4-{4-[2-(4-methylphenoxy)ethyl]benzyl}piperazin-1-yl)prop-2-en-1-one hydrochloride] returned a melting point of 207 to 207.2 °C. In data set [1] (Homo sapiens, 120 h), the IC50 was less than 10 nM.
The like results for `Cc1cc(/C=C/C(=O)N2CCN(Cc3ccc(COc4ccc(OC(C)C)cc4)cc3)CC2)cc(C)c1Oc1ccc(OCc2ccc(C#N)cc2)cn1.Cl` [Example 647, 4-({[6-(2,6-Dimethyl-4-{(E)-3-oxo-3-[4-(4-{[4-(propan-2-yloxy)phenoxy]methyl}benzyl)-piperazin-1-yl]prop-1-en-1-yl}phenoxy)pyridin-3-yl]oxy}methyl)benzonitrile hydrochloride] were, in that order, 216.2 to 219.2 °C and less than 10 nM.
`COc1ccc(Oc2ccc3cc(CN4CCN(C(=O)/C=C/c5cc(C)c(Oc6ccc(OCc7ccccc7Cl)cn6)c(Cl)c5)CC4)ccc3n2)cc1.Cl` [Example 675, (E)-3-[3-Chloro-4-({5-[(2-chlorobenzyl)oxy]pyridin-2-yl}oxy)-5-methylphenyl]-1-(4-{[2-(4-methoxyphenoxy)quinolin-6-yl]methyl}piperazin-1-yl)prop-2-en-1-one hydrochloride]: the melting point fell in the range of 228 to 228.9 °C. Also, in data set [1] (Homo sapiens, 120 h), the concentration for half-maximal inhibition (IC50) was less than 10 nM.
Take `COc1ccc(CCOc2ccc(CN3CCN(C(=O)/C=C/c4cc(C)c(Oc5ccc(OCc6ccc(C(F)(F)F)cc6)cn5)c(Cl)c4)CC3)cc2)cc1` [Example 688, (E)-3-{3-Chloro-5-methyl-4-[(5-{[4-(trifluoromethyl)benzyl]oxy}pyridin-2-yl)oxy]phenyl}-1-(4-{4-[2-(4-methoxyphenyl)ethoxy]benzyl}piperazin-1-yl)prop-2-en-1-one hydrochloride]: the half-maximal inhibitory concentration (IC50) in data set [1] (Homo sapiens, 120 h) is less than 10 nM.
`Cc1cc(/C=C/C(=O)N2CCN(Cc3ccc(Cl)cc3)CC2)cc(Cl)c1Oc1ccc(OCCc2ccc(Cl)cc2)cn1.Cl` [Example 765, (E)-1-[4-(4-Chlorobenzyl)piperazin-1-yl]-3-[3-chloro-4-({5-[2-(4-chlorophenyl)ethoxy]pyridin-2-yl}oxy)-5-methylphenyl]prop-2-en-1-one hydrochloride] registered a melting point of 220 to 220.9 °C. This compound showed an IC50 in data set [2] of less than 10 nM.
As for `Cc1ccc(CN2CCN(C(=O)/C=C/c3cc(C)c(Oc4ccc(OCc5ccc(F)cc5)cn4)c(Cl)c3)CC2)cc1.Cl` [Example 779, (E)-3-[3-Chloro-4-({5-[(4-fluorobenzyl)oxy]pyridin-2-yl}oxy)-5-methylphenyl]-1-[4-(4-methylbenzyl)piperazin-1-yl]prop-2-en-1-one hydrochloride], the melting point is 223.9 to 224.5 °C. Further, in data set [2], the IC50 is less than 10 nM.
Compound `Cc1ccc(CN2CCN(C(=O)/C=C/c3cc(C)c(Oc4ccc(OCc5ccc(Cl)cc5)cn4)c(Cl)c3)CC2)cc1.Cl` [Example 781, (E)-3-[3-Chloro-4-({5-[(4-chlorobenzyl)oxy]pyridin-2-yl}oxy)-5-methylphenyl]-1-[4-(4-methylbenzyl)piperazin-1-yl]prop-2-en-1-one hydrochloride] displayed a melting point of 223.1 to 224 °C. In data set [2], this compound yielded an IC50 of less than 10 nM.

What is called IC50 is the concentration that gives 50% inhibition. Read a low IC50 as greater potency. The melting point is the temperature, or range, at which the solid turns liquid.
